Experimental data: patent US11371013B2, “Culture medium composition and method of culturing cell or tissue using thereof” (Nissan Chemical Industries, Ltd., priority 2012, dated 2022)

Tests used:
HepG2 cells [1] = test: Toxicity test of compound to hepatocytes: number of viable cells (Cell Titer-Glo); assay type: cell-based, human; details: 1 day, DAG 0.015%, no addition = 1
Method: (§1) This aqueous solution was sterilized at 121° C. for 20 min in an autoclave. On the other hand, HepG2 cells was mixed with DMEM medium (manufactured by WAKO) at 100000 cells/mL, and the cell suspension was dispensed to the wells of a 96-well flat bottom ultra low adhesion surface microplate (manufactured by Corning Incorporated, #3474) at 100 μL/well. […] Successively, this plate was cultured by being stood still in a CO2 incubator (37° C., 5% CO2) for 1 day.
The culture medium (50 μL) after culturing for 1 day was dispensed to a 96-well titer plate (manufactured by Corning Incorporated), to this culture medium was added a Cell Titer-Glo (registered trade mark) reagent (manufactured by Promega, 50 μL), and the mixture was incubated at room temperature for 10 min. The luminescence intensity was measured by a multiplate reader is (manufactured by Molecular Devices, FlexStation3) to measure the number of viable cells.

HepG2 cells [2] = test: Toxicity test of compound to hepatocytes: lactic acid dehydrogenase (LDH) activity measurement; assay type: cell-based, human; details: 1 day, DAG 0.015%
Method: as §1
To the culture medium (100 μL) after culturing for 1 day was added DMEM medium (manufactured by WAKO, 100 μL), and the plate was centrifuged by 440G for 15 min. The supernatant (100 μL) was dispensed to a 96-well titer plate (manufactured by Corning Incorporated), a reaction mixture (100 μL) in a cytotoxicity detection kit (manufactured by Roche Applied Science) was added, and the mixture was stood under shading at room temperature for 30 min. Successively, according to the protocol of the above-mentioned kit, the absorbance at 490 nm (reference; 600 nm) was measured by an absorbance spectrometer (manufactured by Molecular Devices, SPECTRA MAX 190), whereby the rate of the disordered cell, that is, cell disorder rate (%), was measured.

[3] = State of medium composition (liquid/solid); assay type: physicochemical
Method: (§2) This aqueous solution was allowed to cool to room temperature with stirring, and sterilized at 121° C. for 20 min in an autoclave. […] The viscosity of the medium compositions was measured using an E type viscometer (manufactured by Toki Sangyo Co., Ltd., Viscometer TVE-22L, standard roter 1° 34′×R24) under 37° C. condition at 100 rpm for 5 min.
DMEM/F-12 medium (manufactured by Aldrich, 100 mL) was placed in a 200 mL pear-shaped flask, and methylcellulose (M0387, manufactured by Aldrich, […]) was added. The mixture was stirred while cooling in an ice bath to dissolve methylcellulose. Using this solution, medium compositions added with the aqueous methylcellulose solution at a final concentration of 0.1, 0.3, 0.6 or 1.0% (w/v) were prepared.
A 10-fold concentration of DMEM/F-12 medium (manufactured by Aldrich, 1 mL), a buffer for reconstitution (manufactured by Nitta Gelatin Inc., 1 mL) and pure water (1.5 mL) were added to 0.3% cell matrix type I-A (manufactured by Nitta Gelatin Inc., 6.5 mL), and the mixture was stirred in an ice to give a 0.2% collagen-containing medium. Similarly, medium compositions added with collagen at a final concentration of 0.01, 0.05, 0.1 or 0.2% (w/v) were prepared.
(§3) The final concentration of polysaccharide was set to 0.1% (w/v) for xanthan gum, sodium alginate, locust bean gum, 0.2% (w/v) for methylcellulose, and 0.05% (w/v) for K-carageenan and diutan gum. The state of each medium composition and the viscosity measured by a method similar to that in Analysis Example 1 are shown in Tables 11-16.

[4] = Viscosity measurement of medium composition (E type viscometer); assay type: physicochemical; details: 37°C, 100 rpm
Method: The viscosity of the liquid containing the structure can be measured, for example, by the method described in the below-mentioned Examples. Specifically, it can be measured under 37° C. conditions and using an E-type viscosity meter (manufactured by Toki Sangyo Co., Ltd., TV-22 type viscosity meter, model: TVE-22L, corn roter: standard roter 1° 34′×R24, rotation number 100 rpm).
as §2
The medium compositions prepared above were subjected to a suspension test of HeLa cell spheres and a viscosity measurement, in the same manner as with the deacylated gellan gum-containing medium. The viscosity of 1.0% (w/v) methylcellulose was measured at 50 rpm due to the measurement range of the apparatus.
In the same manner as in Experimental Example 2, spheres of HeLa cells were formed, and several tens of the spheres were added to each medium (1 mL) prepared above, the mixture was stood still at 37° C. for 1 hr, and the suspended state of the sphere cells was visually observed. […] Furthermore, it was confirmed that addition of an equal amount of the medium to the cell suspension and centrifugation (300 to 400G, 5 min) thereof result in sedimentation and recovery of the spheres of HeLa cells. The suspended state of the spheres of HeLa cells cultured in the medium composition of the present invention is each shown in FIG. 11.
as §3

Compound | relative cell number (HepG2 cells [1]; 20 μM) | relative cell number (HepG2 cells [1]; 40 μM) | relative cell number (HepG2 cells [1]; 60 μM) | relative cell number (HepG2 cells [1]; 100 μM) | cell disorder rate (HepG2 cells [2]; 20 μM) [%] | cell disorder rate (HepG2 cells [2]; 40 μM) [%] | cell disorder rate (HepG2 cells [2]; 60 μM) [%] | cell disorder rate (HepG2 cells [2]; 100 μM) [%] | state ([3]; 0.01% (w/v) in DMEM/F-12) | state ([3]; 0.05% (w/v) in DMEM/F-12) | state ([3]; 0.1% (w/v) in DMEM/F-12) | state ([3]; 0.2% (w/v) in DMEM/F-12) | viscosity ([4]; 0.01% (w/v) in DMEM/F-12) [mPa · s] | viscosity ([4]; 0.05% (w/v) in DMEM/F-12) | viscosity ([4]; 0.1% (w/v) in DMEM/F-12) | viscosity ([4]; 0.2% (w/v) in DMEM/F-12)
Cc1c(C)c2c(c(C)c1O)CCC(C)(COc1ccc(CC3SC(=O)NC3=O)cc1)O2 (stereo not shown) [Troglitazone] | 0.68 | 0.50 | 0.48 | 0.39 | 2.68 | 14.7 | 22.5 | 60.7 | – | – | – | – | – | – | – | –
collagen | – | – | – | – | – | – | – | – | liquid | liquid/solid | solid (gel) | solid (gel) | 1.18 | unmeasurable | unmeasurable | unmeasurable
